The record followed here is the supplement of paper PMC10307832.

Experiment in all cases: relative viability (nuclei count vs DMSO), 5 days (fraction); higher = more cells survive
Compound in the assay “Wnt-C59 + Lapatinib”: CC1=NC=CC(=C1)C2=CC=C(C=C2)CC(=O)NC3=CC=C(C=C3)C4=CN=CC=C4 [Wnt-C59] + CS(=O)(=O)CCNCc1ccc(-c2ccc3ncnc(Nc4ccc(OCc5cccc(F)c5)c(Cl)c4)c3c2)o1 [Lapatinib] (partner 2 µM)
The gist of the method: (§1)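 Relative viability equals treated-well nuclei counts divided by vehicle-well nuclei counts. Counts came from 4× images of lung cancer cell lines grown in 1536-well plates for 5 days after pin-tool dosing on the day after seeding. Dosing used one drug alone or a fixed anchor-drug dose plus five library-drug doses (not always all listed) in √10 steps, and values are medians of duplicate plates.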

Compound in the assay “Lapatinib + Foretinib”: CS(=O)(=O)CCNCc1ccc(-c2ccc3ncnc(Nc4ccc(OCc5cccc(F)c5)c(Cl)c4)c3c2)o1 [Lapatinib] + COc1cc2c(Oc3ccc(NC(=O)C4(C(=O)Nc5ccc(F)cc5)CC4)cc3F)ccnc2cc1OCCCN1CCOCC1 [Foretinib] (partner 0.25 µM)
The method, boiled down:
as §1

Compound in the assay “Lapatinib + Crizotinib”: CS(=O)(=O)CCNCc1ccc(-c2ccc3ncnc(Nc4ccc(OCc5cccc(F)c5)c(Cl)c4)c3c2)o1 [Lapatinib] + C[C@@H](Oc1cc(-c2cnn(C3CCNCC3)c2)cnc1N)c1c(Cl)ccc(F)c1Cl [Crizotinib] (partner 1 µM)
The method, boiled down:
as §1

Compound in the assay “Lapatinib + Decitabine”: CS(=O)(=O)CCNCc1ccc(-c2ccc3ncnc(Nc4ccc(OCc5cccc(F)c5)c(Cl)c4)c3c2)o1 [Lapatinib] + Nc1ncn([C@H]2C[C@H](O)[C@@H](CO)O2)c(=O)n1 [Decitabine] (partner 2 µM)
The method, boiled down: as §1

Regarding CAL-12T, the relative viability is 0.614 with Wnt-C59 + Lapatinib (first compound 0.001 µM); 0.761 in the assay with Wnt-C59 + Lapatinib (first compound 0.03162 µM); 0.625 with Wnt-C59 + Lapatinib (first compound 0.1 µM); 1.12 with Lapatinib + Foretinib (first compound 0.06325 µM); 1.03 with Lapatinib + Foretinib (first compound 0.2 µM); 1.02 in the assay with Lapatinib + Foretinib (first compound 0.6325 µM). Further, the relative viability is 0.954 with Lapatinib + Foretinib (first compound 2 µM); 0.593 with Lapatinib + Crizotinib (first compound 0.02 µM); 0.59 with Lapatinib + Crizotinib (first compound 0.06325 µM); 0.575 with Lapatinib + Crizotinib (first compound 0.2 µM); 0.57 with Lapatinib + Crizotinib (first compound 0.6325 µM); 0.326 with Lapatinib + Crizotinib (first compound 2 µM).
With NCI-H522, the relative viability with Lapatinib + Decitabine (first compound 0.06325 µM) was 0.645; with Lapatinib + Decitabine (first compound 0.2 µM), 0.647; with Lapatinib + Decitabine (first compound 0.6325 µM), 0.683; with Lapatinib + Decitabine (first compound 2 µM), 0.664.
In the case of SW 900, the relative viability with Lapatinib + Foretinib (first compound 0.06325 µM) is 0.808; in the assay with Lapatinib + Foretinib (first compound 0.2 µM), 0.659; in the assay with Lapatinib + Foretinib (first compound 0.6325 µM) it was 0.781; with Lapatinib + Foretinib (first compound 2 µM) it was 0.734; with Lapatinib + Decitabine (first compound 0.06325 µM), 0.392; with Lapatinib + Decitabine (first compound 0.2 µM), 0.428. Besides, the relative viability was 0.44 in the assay with Lapatinib + Decitabine (first compound 0.6325 µM) and 0.425 with Lapatinib + Decitabine (first compound 2 µM).
As to IA-LM, the relative viability is 0.876 with Wnt-C59 + Lapatinib (first compound 0.001 µM); 0.768 with Wnt-C59 + Lapatinib (first compound 0.01 µM); 0.47 with Wnt-C59 + Lapatinib (first compound 0.03162 µM); 0.674 with Wnt-C59 + Lapatinib (first compound 0.1 µM); 1.08 with Lapatinib + Foretinib (first compound 0.02 µM); 1.13 with Lapatinib + Foretinib (first compound 0.06325 µM). The relative viability with Lapatinib + Foretinib (first compound 0.2 µM) was 1.36; with Lapatinib + Foretinib (first compound 0.6325 µM), 1.03; in the assay with Lapatinib + Foretinib (first compound 2 µM) it was 1.16; with Lapatinib + Crizotinib (first compound 0.02 µM) it was 0.823; with Lapatinib + Crizotinib (first compound 0.06325 µM), 0.98; with Lapatinib + Crizotinib (first compound 0.2 µM), 0.713. For the same cell line, the relative viability worked out at 0.881 with Lapatinib + Crizotinib (first compound 0.6325 µM) and 0.644 with Lapatinib + Crizotinib (first compound 2 µM).
On to NCI-H2228, for which the relative viability was 1.3 with Wnt-C59 + Lapatinib (first compound 0.001 µM); 1.07 with Wnt-C59 + Lapatinib (first compound 0.01 µM); 0.801 in the assay with Wnt-C59 + Lapatinib (first compound 0.03162 µM); 0.874 in the assay with Wnt-C59 + Lapatinib (first compound 0.1 µM); 0.837 in the assay with Lapatinib + Foretinib (first compound 0.02 µM); 0.714 in the assay with Lapatinib + Foretinib (first compound 0.06325 µM). In addition, the relative viability with Lapatinib + Foretinib (first compound 0.2 µM) amounted to 0.96; in the assay with Lapatinib + Foretinib (first compound 0.6325 µM), 0.826; in the assay with Lapatinib + Foretinib (first compound 2 µM) it was 0.701; with Lapatinib + Crizotinib (first compound 0.02 µM), 0.603; in the assay with Lapatinib + Crizotinib (first compound 0.06325 µM), 0.342; with Lapatinib + Crizotinib (first compound 0.2 µM) it was 0.462. In addition, the values for the relative viability with Lapatinib + Crizotinib (first compound 0.6325 µM) and in the assay with Lapatinib + Crizotinib (first compound 2 µM) were 0.379 and 0.297, respectively.
In the case of ChaGo-K-1, the relative viability with Lapatinib + Foretinib (first compound 0.02 µM) was 0.907; with Lapatinib + Foretinib (first compound 0.06325 µM) it was 0.936; in the assay with Lapatinib + Foretinib (first compound 0.2 µM), 0.879; with Lapatinib + Foretinib (first compound 0.6325 µM) it was 0.951; in the assay with Lapatinib + Foretinib (first compound 2 µM) it was 0.835; with Lapatinib + Crizotinib (first compound 0.06325 µM), 1.07. Moreover, the relative viability with Lapatinib + Crizotinib (first compound 0.2 µM) was 1.19; with Lapatinib + Crizotinib (first compound 0.6325 µM) it was 1.09; in the assay with Lapatinib + Crizotinib (first compound 2 µM), 1.09; in the assay with Lapatinib + Decitabine (first compound 0.02 µM), 0.528; with Lapatinib + Decitabine (first compound 0.06325 µM) it was 0.562; in the assay with Lapatinib + Decitabine (first compound 0.2 µM), 0.542. The values for the relative viability in the assay with Lapatinib + Decitabine (first compound 0.6325 µM) and with Lapatinib + Decitabine (first compound 2 µM) were 0.52 and 0.447, respectively.
On to NCI-H1648, for which the relative viability with Lapatinib + Decitabine (first compound 0.06325 µM) turned out to be 0.389; in the assay with Lapatinib + Decitabine (first compound 0.2 µM), 0.495; with Lapatinib + Decitabine (first compound 0.6325 µM) it was 0.481; with Lapatinib + Decitabine (first compound 2 µM), 0.33.
On to NCI-H441, for which the relative viability with Lapatinib + Foretinib (first compound 0.06325 µM) is 0.931; with Lapatinib + Foretinib (first compound 0.2 µM), 1.01; in the assay with Lapatinib + Foretinib (first compound 0.6325 µM), 0.822; with Lapatinib + Foretinib (first compound 2 µM), 1.1; in the assay with Lapatinib + Crizotinib (first compound 0.02 µM), 0.681; in the assay with Lapatinib + Crizotinib (first compound 0.06325 µM), 0.861. Further, the relative viability with Lapatinib + Crizotinib (first compound 0.2 µM) came to 0.803; with Lapatinib + Crizotinib (first compound 0.6325 µM), 0.689; with Lapatinib + Crizotinib (first compound 2 µM), 0.721; with Lapatinib + Decitabine (first compound 0.02 µM) it was 0.239; in the assay with Lapatinib + Decitabine (first compound 0.2 µM) it was 0.268; with Lapatinib + Decitabine (first compound 0.6325 µM) it was 0.266. The relative viability with Lapatinib + Decitabine (first compound 2 µM) is 0.214.
As for NCI-H1793, the relative viability with Wnt-C59 + Lapatinib (first compound 0.001 µM) was found to be 0.787; in the assay with Wnt-C59 + Lapatinib (first compound 0.01 µM), 0.555; in the assay with Wnt-C59 + Lapatinib (first compound 0.03162 µM), 0.717; with Wnt-C59 + Lapatinib (first compound 0.1 µM), 0.855; with Lapatinib + Foretinib (first compound 0.06325 µM), 0.5; with Lapatinib + Foretinib (first compound 0.2 µM), 0.497. Moreover, the relative viability with Lapatinib + Foretinib (first compound 0.6325 µM) was 0.524; in the assay with Lapatinib + Foretinib (first compound 2 µM), 0.422; with Lapatinib + Decitabine (first compound 0.06325 µM), 0.404; in the assay with Lapatinib + Decitabine (first compound 0.2 µM), 0.418; in the assay with Lapatinib + Decitabine (first compound 0.6325 µM) it was 0.424; with Lapatinib + Decitabine (first compound 2 µM) it was 0.44.
For the cell line NCI-H1792, the relative viability turned out to be 0.866 with Wnt-C59 + Lapatinib (first compound 0.001 µM); 0.982 in the assay with Wnt-C59 + Lapatinib (first compound 0.01 µM); 0.991 with Wnt-C59 + Lapatinib (first compound 0.03162 µM); 0.913 with Wnt-C59 + Lapatinib (first compound 0.1 µM); 0.92 in the assay with Lapatinib + Crizotinib (first compound 0.02 µM); 0.987 with Lapatinib + Crizotinib (first compound 0.06325 µM). Further, the relative viability in the assay with Lapatinib + Crizotinib (first compound 0.2 µM) is 0.985; with Lapatinib + Crizotinib (first compound 0.6325 µM) it was 0.946; with Lapatinib + Crizotinib (first compound 2 µM) it was 0.918; in the assay with Lapatinib + Decitabine (first compound 0.2 µM) it was 0.555; in the assay with Lapatinib + Decitabine (first compound 0.6325 µM), 0.509; with Lapatinib + Decitabine (first compound 2 µM) it was 0.388.
For the cell line NCI-H1395, the relative viability with Wnt-C59 + Lapatinib (first compound 0.001 µM) worked out at 1.03; with Wnt-C59 + Lapatinib (first compound 0.01 µM), 0.972; in the assay with Wnt-C59 + Lapatinib (first compound 0.03162 µM), 1.1; with Wnt-C59 + Lapatinib (first compound 0.1 µM), 0.991; with Lapatinib + Foretinib (first compound 0.02 µM), 1.03; with Lapatinib + Foretinib (first compound 0.06325 µM), 1.04. Also, the relative viability with Lapatinib + Foretinib (first compound 0.2 µM) was 1.01; with Lapatinib + Foretinib (first compound 0.6325 µM) it was 0.929; in the assay with Lapatinib + Foretinib (first compound 2 µM) it was 0.917; with Lapatinib + Decitabine (first compound 0.06325 µM) it was 0.719; with Lapatinib + Decitabine (first compound 0.2 µM), 0.802; in the assay with Lapatinib + Decitabine (first compound 0.6325 µM), 0.729. Moreover, in the assay with Lapatinib + Decitabine (first compound 2 µM), the relative viability is 0.701.
Regarding LCLC-103H, the relative viability with Lapatinib + Foretinib (first compound 0.02 µM) came out at 0.849; in the assay with Lapatinib + Foretinib (first compound 0.06325 µM), 0.744; in the assay with Lapatinib + Foretinib (first compound 0.2 µM), 0.753; with Lapatinib + Foretinib (first compound 0.6325 µM), 0.835; in the assay with Lapatinib + Foretinib (first compound 2 µM), 0.712; with Lapatinib + Crizotinib (first compound 0.06325 µM), 0.93. For the same cell line, the relative viability came out at 0.934 with Lapatinib + Crizotinib (first compound 0.2 µM); 0.963 in the assay with Lapatinib + Crizotinib (first compound 0.6325 µM); 0.931 in the assay with Lapatinib + Crizotinib (first compound 2 µM); 0.764 with Lapatinib + Decitabine (first compound 0.02 µM); 0.657 in the assay with Lapatinib + Decitabine (first compound 0.06325 µM); 0.652 with Lapatinib + Decitabine (first compound 0.2 µM). Besides, the relative viability worked out at 0.775 with Lapatinib + Decitabine (first compound 0.6325 µM) and 0.666 in the assay with Lapatinib + Decitabine (first compound 2 µM).
For EBC-1, the relative viability with Wnt-C59 + Lapatinib (first compound 0.001 µM) is 0.203; in the assay with Wnt-C59 + Lapatinib (first compound 0.01 µM) it was 0.214; with Wnt-C59 + Lapatinib (first compound 0.03162 µM), 0.18; in the assay with Wnt-C59 + Lapatinib (first compound 0.1 µM) it was 0.208; with Lapatinib + Foretinib (first compound 0.02 µM), 0.113; with Lapatinib + Foretinib (first compound 0.06325 µM), 0.0941. The relative viability with Lapatinib + Foretinib (first compound 0.2 µM) worked out at 0.0867; with Lapatinib + Foretinib (first compound 0.6325 µM) it was 0.108; with Lapatinib + Foretinib (first compound 2 µM) it was 0.0963; with Lapatinib + Crizotinib (first compound 0.02 µM), 0.181; with Lapatinib + Crizotinib (first compound 0.06325 µM), 0.179; with Lapatinib + Crizotinib (first compound 0.2 µM), 0.178. In addition, the relative viability came out at 0.174 with Lapatinib + Crizotinib (first compound 0.6325 µM) and 0.18 with Lapatinib + Crizotinib (first compound 2 µM).
